Reference: article PMC12446476 (Nature Communications, 2025)
Read-outs that look alike come from different tables or passages of the source.

Tested on: non-gonococcal Neisseria
Assay: MIC determination for non-gonococcal Neisseria, agar dilution
Format: cell-based, Neisseria species
Conditions: read-out: Minimum inhibitory concentration
Source text: The 2024 WHO N. gonorrhoeae reference strains were used for quality control. Only whole MIC doubling dilutions are reported. Clinical breakpoints or the epidemiological cutoff (ECOFF, to indicate azithromycin resistance) from EUCAST (v14.0, https://www.eucast.org/clinical_breakpoints) were used to classify isolates as antimicrobial susceptible or resistant. […] Two times the standard inoculum defined by CLSI was used to establish consistent growth in untreated control samples for some strains. In vitro time-kill assays were performed according to CLSI guidelines[65] using Columbia Broth (BD Difco) supplemented with 1% IsoVitaleX Enrichment (BD). Viable bacterial counts were generated by plating 10-fold serially diluted samples on GC agar plates containing 1% IsoVitaleX Enrichment (BD).

Measured: MIC

Cc1c(CN(C)C(=O)/C=C/c2cnc3c(c2)N[C@H](C)[C@H](O)C(=O)N3)oc2ccccc12 [Debio 1453]
0.25 µg/mL: Neisseria mucosa 5, Replicate 1 | Neisseria mucosa 6, Replicate 1 | Neisseria mucosa 7, Consensus | Neisseria mucosa 7, Replicate 1 | Neisseria mucosa 7, Replicate 2 | Neisseria mucosa 7, Replicate 3 | Neisseria perflava 1, Consensus | Neisseria perflava 1, Replicate 1 | Neisseria perflava 1, Replicate 2 | Neisseria perflava 1, Replicate 3 | Neisseria perflava 4, Consensus | Neisseria perflava 4, Replicate 1 | Neisseria perflava 4, Replicate 2 | Neisseria perflava 4, Replicate 3 | Neisseria perflava 6, Consensus | Neisseria perflava 6, Replicate 1 | Neisseria perflava 6, Replicate 3 | Neisseria perflava 8, Consensus | Neisseria perflava 8, Replicate 1 | Neisseria perflava 8, Replicate 3 | Neisseria perflava 9, Replicate 1 | Neisseria perflava 13, Consensus | Neisseria perflava 13, Replicate 1 | Neisseria perflava 13, Replicate 2 | Neisseria perflava 13, Replicate 3 | Neisseria perflava 18, Replicate 2
1 µg/mL: Neisseria mucosa 4, Replicate 1 | Neisseria mucosa 4, Replicate 2 | Neisseria mucosa 4, Replicate 3 | Neisseria mucosa 8, Consensus | Neisseria mucosa 8, Replicate 1 | Neisseria mucosa 8, Replicate 2 | Neisseria mucosa 8, Replicate 3 | Neisseria mucosa 9, Replicate 1 | Neisseria perflava 11, Consensus | Neisseria perflava 11, Replicate 1 | Neisseria perflava 11, Replicate 2 | Neisseria perflava 16, Replicate 3 | Neisseria perflava 19, Consensus | Neisseria perflava 19, Replicate 1 | Neisseria perflava 19, Replicate 2 | Neisseria perflava 19, Replicate 3 | Neisseria perflava 21, Consensus | Neisseria perflava 21, Replicate 1 | Neisseria perflava 21, Replicate 2 | Neisseria perflava 21, Replicate 3 | Neisseria perflava 22, Consensus | Neisseria perflava 22, Replicate 1 | Neisseria perflava 22, Replicate 2 | Neisseria perflava 22, Replicate 3 | Neisseria perflava 25, Consensus | Neisseria perflava 25, Replicate 1 | Neisseria perflava 25, Replicate 2
0.032 µg/mL: Neisseria perflava 2, Consensus | Neisseria perflava 2, Replicate 1 | Neisseria perflava 2, Replicate 2 | Neisseria perflava 2, Replicate 3 | Neisseria perflava 3, Consensus | Neisseria perflava 3, Replicate 1 | Neisseria perflava 3, Replicate 2 | Neisseria perflava 3, Replicate 3
0.5 µg/mL: Neisseria mucosa 5, Consensus | Neisseria mucosa 5, Replicate 2 | Neisseria mucosa 5, Replicate 3 | Neisseria mucosa 6, Consensus | Neisseria mucosa 6, Replicate 2 | Neisseria mucosa 6, Replicate 3 | Neisseria perflava 6, Replicate 2 | Neisseria perflava 7, Consensus | Neisseria perflava 7, Replicate 1 | Neisseria perflava 7, Replicate 2 | Neisseria perflava 7, Replicate 3 | Neisseria perflava 8, Replicate 2 | Neisseria perflava 9, Consensus | Neisseria perflava 9, Replicate 2 | Neisseria perflava 9, Replicate 3 | Neisseria perflava 10, Consensus | Neisseria perflava 10, Replicate 1 | Neisseria perflava 10, Replicate 2 | Neisseria perflava 10, Replicate 3 | Neisseria perflava 11, Replicate 3 | Neisseria perflava 12, Consensus | Neisseria perflava 12, Replicate 1 | Neisseria perflava 12, Replicate 2 | Neisseria perflava 12, Replicate 3 | Neisseria perflava 14, Consensus | Neisseria perflava 14, Replicate 1 | Neisseria perflava 14, Replicate 2 | Neisseria perflava 14, Replicate 3 | Neisseria perflava 15, Consensus | Neisseria perflava 15, Replicate 1 | Neisseria perflava 15, Replicate 2 | Neisseria perflava 15, Replicate 3 | Neisseria perflava 16, Consensus | Neisseria perflava 16, Replicate 1 | Neisseria perflava 16, Replicate 2 | Neisseria perflava 17, Consensus | Neisseria perflava 17, Replicate 1 | Neisseria perflava 17, Replicate 2 | Neisseria perflava 17, Replicate 3 | Neisseria perflava 20, Consensus | Neisseria perflava 20, Replicate 1 | Neisseria perflava 20, Replicate 2 | Neisseria perflava 20, Replicate 3 | Neisseria perflava 23, Consensus | Neisseria perflava 23, Replicate 1 | Neisseria perflava 23, Replicate 2 | Neisseria perflava 23, Replicate 3
2 µg/mL: Neisseria mucosa 9, Consensus | Neisseria mucosa 9, Replicate 2 | Neisseria mucosa 9, Replicate 3
